The text below walks through data of patent US11168052B2, “Carbamate derivative compounds, processes for preparing them and their uses” (BIO-PHARM SOLUTIONS CO., LTD., priority 2016, dated 2021).

One assay concerns SNL model in rats. The assay is described as follows: Antiallodynic activity on Chung model (SNL, spinal nerve ligation), von Frey test. The class given is in vivo, Sprague-Dawley rats. Particulars: orally. The text has this:
Male Sprague-Dawley rats (100-130 g, Orient Bio, Korea) were habituated for 1 week before the experiment, and allowed free access to food and water throughout the experimentation. Room temperature and humidity were maintained at 24±2 and 50±10%, respectively. The neuropathic surgery (SNL, Spinal nerve ligation) model was done as described in Kim and Chung (1992). Briefly, an animal was put under gaseous anesthesia with isoflurane. The left lumber spinal nerve L5 and L6 were isolated and tightly ligated with 6-0 silk thread. […]
Tactile sensitivity (Mechanical allodynia) was evaluated using von Frey monofilaments before and after treatment, and animals were included in the study only if the withdrawal threshold value was less than 4 g. […] The tactile sensitivity for the ipsilateral hind paw was measured using the up-and-down method (Dixon, 1980) with seven von Frey monofilaments (0.4, 1, 2, 4, 6, 8, and 15 g) in 3 trials. […] The 50% paw withdrawal threshold for each paw was calculated using the following formula: [Xth]log=[vFr]log+ky where [vFr] is the force of the last von Frey used, k=0.2249 which is the average interval (in log units) between the von Frey monofilaments, and y is a value that depends upon the pattern of withdrawal responses (Dixon, 1980). […]

The subject of assay [1] is acetic acid-induced writhes in ICR mice. In words: Writhing test (acetic acid). Particulars: Mus musculus, po. The class given is in vivo. As to the method: To examine the pain relief effect of the carbamate compounds, a writhing test was conducted, referring to Fischer, L. G. et al. (2008).
ICR mice (male, 24-28g; Orient Bio, Korea) were habituated before test (in test room) for 1 hour. Animals were fasted 2 hr before administration of compounds. Each of compounds was orally administered at the three dose, 10 ul/g, bw (n=3-5/group). All compounds were dissolved in a vehicle of 30% (v/v) PEG 400 or 20% (v/v) Tween 80. The control group was treated the vehicle without compounds.
0.2-2 hour after the administration of compounds, 0.6% acetic acid at the dose of 10 ul/g by bodyweight was injected into the mice Animals were habituated in the cage for 5 min. 5 min after habituation, the number of writhes (abdominal constriction) was counted for 15 min, referring to Korzeniewska-Rybicka, I. et al. (1998) and compared with that of a control.
The relative values compared to the control (% control) were calculated and shown in […]
For orientation: An intraperitoneal irritant provokes the stretching counted in writhing tests.

Assay [2] has as its system ICR mice, tail-flick analgesia meter. In words: Tail-flick test. The format is in vivo. Particulars: orally, withdrawal latency. On the procedure: To examine the pain relief effect of the carbamate compounds, a tail-flick test was conducted, referring to Current Protocols in Neuroscience; Behavioral Neuroscience Unit 8.9.
ICR mice (male, 25-30g; Orient Bio, Korea) were habituated before test (in test room) for 1 hour. Animals were fasted 2 hr before administration of compounds. Each of Compound was orally administered at the 1-3 dose, 10 ul/g, by bodyweight (n=4-6/group). All compounds were dissolved in a vehicle of 30% (v/v) PEG 400 or 20% (v/v) Tween 80. The control group was treated the vehicle without compounds.
After the administration of compounds, the mice tail were put on a tail-flick analgesia meter. To avoid tissue damage, maximal exposure time to pain stimuli was restricted to 15 s. The withdrawal latency was measured to the time to the point when each mouse responded. The relative values compared to the control (% control) were calculated.
The relative values compared to the sham were calculated and shown in Table 7, which show effect of the compound of examples on tail-flick test in Mice.
(In general: In hot-plate and tail-flick tests a longer latency is read as antinociception.)

The test system of assay [3] is PTZ (Pentylenetetrazol)-induced clonic seizure in rats. The assay is described as follows: Anti-epilepsy activity, scPTZ test in rats. The format is in vivo, SD rats. Particulars: Rattus norvegicus, ip. An excerpt:
In this experiment, each test compound sample was formulated as described in Biological Experimental Example 1, and administered intraperitoneally to the test animals (mice; ICR or Rat; SD); Experimental animals, male ICR mice and male SD rats, were purchased from OrientBio or Nara biotech, Korea, and housed 4-5 mice per a cage for 4-5 days. The range of mice body weight was used between 19 and 26 grams and range of rats body weight was used between 100 and 130 grams. After Peak time (0.5, 1, 2 and 4 hr) from the administration, PTZ (Pentylenetetrazol) was administered subcutaneously in the concentration capable of inducing 97% intermittent convulsions (mice: 100-110 mg/kg?bw, 10 μl/g, or rats: 90-110 mg/kg?bw, 2 μl/g). If clonic seizure was not observed for at least 30 minutes in the PTZ administered animal, it can be considered that the test compound has anti-epilepsy activity. The median effective dose (ED50) is determined using 6 animals per a concentration (total three different concentrations), and calculated by Litchfield and Wicoxon log-probit method which is a dose-response relationship.

A word on the ED50: it is the dose at which the effect has come halfway, by size or by number of responders. Read a low ED50 as greater potency. For the molecule `NC(=O)O[C@@H]1CCc2cccc(Cl)c2[C@@H]1O` [Example 1, (1S, 2R)-8-chloro-1-hydroxy-1,2,3,4-tetrahydronaphthalen-2-yl carbamate], the ED50 worked out at 35.5 mg/kg with SNL model in rats (Rattus norvegicus, po, von Frey threshold relative to sham); 46.1 mg/kg in assay [1]; 36.3 mg/kg in assay [3]. The “Tail-flick test Dose” value in assay [2] is more than 150 mg/kg.

Turning to `NC(=O)O[C@@H]1c2c(Cl)cccc2CC[C@@H]1O` [Example 19, (1R, 2S)-8-chloro-2-hydroxy-1,2,3,4-tetrahydronaphthalen-1-yl carbamate], in the assay with SNL model in rats (dose 30 mg/kg), the SNL efficacy % is on record as 30(17.8%). For the same molecule, the ED50 in assay [1] is 30 mg/kg; in assay [3], 50 mg/kg. Besides, the “Tail-flick test Dose” value in assay [2] was more than 200 mg/kg.
